pIC50: −log10 of the molar value.
How the values were obtained:
[1] = tested on: IL-6 production from neutrophil; test: Inhibitory activity against IL-6 production, LPS-stimulated neutrophil fraction from human peripheral blood; format: cell-based; conditions: 10 μg/mL LPS, 16-18 hours, RIA
[2] = tested on: adjuvant articular swelling; test: Rat adjuvant arthritis: inhibitory effect against articular swelling; format: in vivo
Experimental: (§1) A rat adjuvant arthritis model, which is commonly used in an in vivo evaluation for antirheumatic agents, was employed in this evaluation. To prepare an arthritis model, heat-killed cells of Mycobacterium butyricum (Difco) were suspended in mineral oil, and a rat was intradermally injected with 0.05 mL of 1% solution of the suspension at the plantar of left hind leg.
Using the above arthritis model, Compound Ia was administered to the animal for 22 days after injection of the adjuvant, and the articular swelling was measured from time to time to evaluate the prophylactic inhibitory effect. On the other hand, the curative effect was evaluated by administering Compound Ia to animals from Day 15 to Day 25 after injection of the adjuvant and measuring the articular swelling in injected and non-injected legs. Inhibitory and curative effects were expressed by effective dose for 30% inhibition (ED30).

[3] = tested on: articular destruction in adjuvant arthritis; test: Rat adjuvant arthritis: inhibitory effect against articular destruction (X-ray score); format: in vivo
Experimental: as §1
The right and left hind legs of the arthritis rats used in the above experiments were radiographed using a soft X-ray radiation and evaluated by the X-ray observation score for the bone destruction in the arthrosis. The effects were numerically evaluated by grading the articular destruction from 0 to 3 (0: normal; 1: low degree of articular and bone destruction; 2: medium degree of articular and bone destruction, and neogenesis of cartilage; 3: strong articular and bone destruction), and the efficacy in the drug-administered group was determined in comparison with the vehicle-administered group according to Wilcoxon U-test (*p<0.05, **p<0.01)(FIG. 2).

[4] = tested on: IL-6 level in articular tissue; test: Rat adjuvant arthritis: repressive effect on the IL-6 level in articular tissue; format: in vivo; conditions: oral, 18 days after adjuvant injection, non-injected leg
Experimental: Another adjuvant arthritis model animal was prepared apart from the above experiments, and a compound was orally administered to the animal for 18 days after the adjuvant injection. The non-injected leg was then amputated under anesthetization, epidermis of the amputated leg was ablated, the leg was frozen in liquid nitrogen, and the arthrosis part was crushed by a crushing machine. To a measured quantity of the crushed arthrosis, 3 mL of ice-cold PBS was added and homogenized with a homogenizer under ice-cooling. The resultant homogenate was centrifuged at 4° C. for 20 minutes at 3,000 rpm to collect the supernatant, which was then passed through a 0.45 μm filter to prepare a sample. The sample and MH60 BSF2 cells (derived from mouse, require IL-6) were incubated on a 96-well plate under defined conditions, and the absorbance was measured at two wave lengths of 540 nm and 690 nm. The IL-6 level in the sample was calculated based on the standard curve prepared using a recombinant human IL-6.

[5] = tested on: NZB/KN mouse; test: Inhibitory effect against bone destruction in spontaneous rheumatic model NZB/KN mouse; format: in vivo; conditions: male NZB/KN mice, oral, five times a week
Description: To male NZB/KN mice, in which a human RA-like pathology arises spontaneously due to their immunologically abnormal background, was orally administered Compound Ia once in a day (five times a week) for six months beginning at two-month-age. The mice which reached six month old (some were eight month old) were full-length radiographed under anesthetization and predetermined conditions using a soft X-ray generator (OM-55, Omic). According to the method of Nakamura, et. al. [Arthritis. Rheum., 34, 171-179 (1991)], the number of the lesions observed in the bones and articular regions in the whole body were counted on the basis of the soft X-ray radiographed films, and the total number of the observed lesions were defined as the number of the bone disorders in the animal. The results were shown using mean±standard deviation, and significance test was performed according to Dunnett-t test (*p<0.05, ** p<0.01: vs. vehicle group).

[6] = tested on: serum amyloid protein (SAP); test: Effect on MRL/l mouse blood acute phase protein SAP; format: in vivo; conditions: oral, five times a week, 13 weeks
Experimental: After the last administration of the compound, blood was collected under anesthetization, and the serum was used for SAP measurement. SAP has been used as a marker for rheumatism. A 96-well plate was coated with rabbit anti-mouse SAP serum, and the serum to be tested was then added to the plate and incubated for 2 hours. After addition of sheep anti-mouse SAP serum, a rabbit anti-sheep IgG antibody labeled with alkaline phosphatase and then a substrate were added to the plate, and OD of developed color was measured at 405 nm.

[7] = tested on: osteoclast formation in mouse myeloblast; test: Inhibition of IL-1β-enhanced formation of osteoclast in mouse myeloblast culture; format: cell-based; conditions: 2.5 ng/mL human IL-1β, six days, TRAP positive multinucleate cells
Experimental: (§2) It has been known that the enhanced formation of osteoclast is induced in the mouse myeloblast culture by addition of IL-1β and such effect is derived from PGE2 production through COX-2 induction. In order to determine inhibitory effect of the compounds against such effect, myeloblasts were collected from a ddY male mice, plated in a 48-well plate at 1×10^6/well and incubated. After culturing for six days in an α-MEM medium containing 10% fetal bovine serum, to which 2.5 ng/mL of human IL-1β and a predetermined concentration of the compounds were added, PGE2 level in the supernatant was measured by RIA kit. On the other hand, cells adhering on the plate were immobilized, and an activity staining of tartaric acid resistant acid phosphatase (TRAP), which is a marker enzyme for osteoclast, was conducted, whereby the number of TRAP positive cells having multinucleate (N>3) per well was counted as osteoclast.

[8] = tested on: PGE2 production; test: Inhibition of PGE2 production due to IL-1β stimulation in mouse myeloblast culture; format: cell-based; conditions: 2.5 ng/mL human IL-1β, six days, RIA
Experimental: as §2

[9] = tested on: blood NOx level; test: Suppressive effect on blood NOx level in adjuvant arthritis rat; format: in vivo; conditions: oral, 28 days
Experimental: An adjuvant arthritis model was prepared in the same manner as above, and the compounds were orally administered to the animals for 28 days beginning on the day before the adjuvant injection. Blood was then collected under anesthetization and the serum was ultracentrifuged. The supernatant was ultrafiltrated to prepare a sample for NOx (nitrite+nitrate) measurement.

[10] = tested on: transcription factor NFκB; test: Suppressive activity on transcription factor NFκB (HIV-1 LTR luciferase reporter in Jurkat cell); format: cell-based, human; conditions: for luciferase activity (%) mean ± standard error: TPA-PHA = 100
Experimental: A recombinant plasmid (pGV-B.HIV-1LTR), in which HIV-1 (AIDS) virus promoter LTR containing two NFκB binding sites is ligated to upstream of firefly luciferase gene, was constructed, and the DNA was purified. This plasmid DNA was introduced by electroporation into a Jurkat cell, a human T cell leukemic cell line, and the cell was cultured for 48 hours. Subsequently, phytohemagglutinin (PHA, 0.5%), phorbol ester (TPA (12-O-tetradecanoylphorbol 13-acetate), 25 ng/mL), and a predetermined concentration of the test compound were added thereto to allow to react for 2 hours, and the cells were harvested, and the luciferase activity in the cellular extract was measured.

pIC50 [1]: 4.70 | pIC50 [7]: 8.89 | pIC50 [8]: 9.68
SMILES: CCN1CC/C(=C\c2cc(C(C)(C)C)c(O)c(C(C)(C)C)c2)S1(=O)=O [Compound Ia, (E)-2-Ethyl-5-(3,5-di-tert-butyl-4-hydroxy)benzylidene-1,2-isothiazolidine-1,1-dioxide]
dose with dose-dependent and significant inhibitory effect against articular swelling, curative effect ([2]; curative): ≥ 3 mg/kg/day | dose with dose-dependent and significant inhibitory effect against articular swelling ([2]; prophylactic, adjuvant-injected leg): ≥ 0.3 mg/kg/day | ED30 (95% confidence limits), prophylactic effect against adjuvant articular swelling ([2]; rat, administered for 22 days after injection of the adjuvant): 0.88 (0.52-1.31) mg/kg/day | ED30 (95% confidence limits), curative effect against adjuvant articular swelling ([2]; rat, administered from Day 15 to Day 25 after injection of the adjuvant): 2.6 (1.3-6.4) mg/kg/day | dose with dose-dependent and significant inhibitory effect against the articular destruction ([3]; adjuvant-injected leg): ≥ 3 mg/kg/day | dose with dose-dependent and significant inhibitory effect against the articular destruction ([3]; non-injected leg): ≥ 1 mg/kg/day | dose with dose-dependent and significant inhibitory effect against the increase of the IL-6 level in the articular tissue [4]: ≥ 3 mg/kg/day | dose with significant improving effect on the bone-articular lesions [5]: ≥ 10 mg/kg/day | effect on blood SAP ([6]; 50 mg/kg/day): significant results | effect on blood SAP ([6]; 2-50 mg/kg/day): repressive tendency in a dose-dependent manner | dose with dose-dependent and significant inhibitory effect on the increase of blood NOx level [9]: ≥ 3 mg/kg/day | luciferase activity (%) mean ± standard error ([10]; Experiment-1, 5 μM): 82.2 ± 8.3% | luciferase activity (%) mean ± standard error ([10]; Experiment-1, 10 μM): 79.6 ± 5.4% | luciferase activity (%) mean ± standard error ([10]; Experiment-1, 20 μM): 54.6 ± 4.3% | luciferase activity (%) mean ± standard error ([10]; Experiment-1, 50 μM): 53.5 ± 5.9% | luciferase activity (%) mean ± standard error ([10]; Experiment-2, 20 μM): 86.4 ± 1.9% | luciferase activity (%) mean ± standard error ([10]; Experiment-2, 50 μM): 75.1% | luciferase activity (%) mean ± standard error ([10]; Experiment-2, 100 μM): 61.1 ± 3.9% | concentration at which luciferase activity was inhibited ([10]; Jurkat cell, TPA-PHA): 5 to 50 µM

Reference: US6743923B2, “Antirheumatic agent” (Shionogi & Co., Ltd., priority 1997, dated 2004)
